# From the SangsterLogP compilation
# Test: method code SF, from DOI: 10.1080/00021369.1987.10868331
row,Structure (SMILES),logP
1,CCCNc1nc(NCCC)nc(SC(F)F)n1,4.45
2,CC(C)Nc1nc(NC(C)(C)C)nc(SC(F)F)n1,4.7
3,CCNc1nc(NCC)nc(SC(F)F)n1,3.28
4,CCCCNc1nc(NCC)nc(SC(F)F)n1,4.51
5,CNc1nc(N)nc(SC(F)F)n1,1.75
6,CNc1nc(NC(C)C)nc(SC(F)F)n1,3.27
7,CCNc1nc(NC(C)(C)C)nc(SC(F)F)n1,4.57
8,CCCNc1nc(NC(C)C)nc(SC(F)F)n1,4.23
9,CCC(C)Nc1nc(NC(C)C)nc(SC(F)F)n1 (stereo unspecified),4.55
10,CCCCNc1nc(NC(C)C)nc(SC(F)F)n1,4.75
11,Nc1nc(N)nc(SC(F)F)n1,1.21
12,CCCCNc1nc(NC)nc(SC(F)F)n1,3.7
13,CCCNc1nc(NC)nc(SC(F)F)n1,3.28
14,CCCCCCNc1nc(NCC)nc(SC(F)F)n1,5.53
15,CCCCCNc1nc(NC)nc(SC(F)F)n1,4.42
16,CCC(C)Nc1nc(NC)nc(SC(F)F)n1 (stereo unspecified),3.69
17,CNc1nc(NC(C)(C)C)nc(SC(F)F)n1,3.91
18,CCNc1nc(N)nc(SC(F)F)n1,2.29
19,CCNc1nc(NC(C)CC)nc(SC(F)F)n1 (stereo unspecified),4.23
20,CCNc1nc(NC)nc(SC(F)F)n1,2.68
21,CCCCCCCCNc1nc(NCC)nc(SC(F)F)n1,6.61
22,CCNc1nc(NC(C)C)nc(SC(F)F)n1,3.7
23,CNc1nc(NC)nc(SC(F)F)n1,2.31
24,CC(C)Nc1nc(NC(C)C)nc(SC(F)F)n1,4.25
25,CCCCCNc1nc(NCC)nc(SC(F)F)n1,4.71
26,CCCNc1nc(NCC)nc(SC(F)F)n1,3.8
